Experimental data published in patent US10648917B2, “Luminescent compositions and applications thereof” (THE PENN STATE RESEARCH FOUNDATION, priority 2015, dated 2020).

assay: Fluorescence spectra, absorbance and quantum yield (spectrofluorometer, integration sphere); format: physicochemical; conditions: CFD dyes
Method: Fluorescence spectra were recorded by a Horiba FluoroMax-4 spectrofluorometer. All polymer and small molecule samples were measured at a concentration of 2% w/w in 1,4-dioxane or DI water and a slit size of 1 nm by 1 nm unless otherwise specified. Quantum yields were also determined on the same spectrofluorometer by using a Quantum-φ integration sphere at the same concentration and slit size with the blank solvent as the reference. ^1H-NMR, ^13C-NMR were performed on a JNM ECS 300 spectrometer using DMSO-d6 or D2O as solvents. Attenuated total reflection Fourier transform infrared (ATR-FTIR) spectra were collected with a Bruker V70 spectrometer using BPLP films. A Shimadzu HPLC-MS system with a Phenomenex Kinetex 2.6u XB-C18 100 mm×2.9 mm column, a SPD M20A PDA detector and a RF-20AXS fluorescence detector (Ex. 360 nm and Em. 430 nm) was used to characterize the structures of fluorophores as well. The mobile phase was a gradient of DI water and acetonitrile with 0-6 min 2% acetonitrile, 6-12 min 2%-30% acetonitrile, and 12-15 min 2% acetonitrile. The flow rate was 0.15 ml/min. Electrospray ionization mass spectroscopy (ESI-MS) was performed with a positive voltage of 4.5 kV and negative mode voltage −4.0 kV and a CDL temperature of 200° C. The analysis of the degradation products of BPLPs were conducted by immersing BPLPs in 1M K2CO3 solution at 37° C. for 24 hours. After degradation, the solutions were neutralized by 1N HCl solution to pH 7 and characterized by HPLC-MS as described above.
Fluorescence spectra were recorded by a Horiba FluoroMax-4 spectrofluorometer. All samples were measured at a concentration corresponding to an optical density of 0.1 in water and a slit size of 1 nm by 1 nm unless specified. Quantum yields were also determined on same spectrofluorometer by using a Quantum-φ integration sphere at samples' maximum excitation wavelength and at an increment of 0.3 nm. Photostability studies were done by continuously exciting samples at their maximum excitation wavelength and monitoring at the maximum emission wavelength.
Fluorescence spectra were recorded on a Horiba FluoroMax-4 spectrofluorometer (Horiba Scientific, Edison N.J.). All polymer and samples were characterized at a concentration of 2 wt % in 1,4-dioxane and a slit size of 1 nm by 1 nm unless otherwise specified. The fluorescence properties of small molecule dyes were also measure in 2 wt % DI water solutions at same conditions as polymer solutions. BPLPs were also degraded in 1M K2CO3 solution at 37° C. for 24 hours and then neutralized with 1N HCl solution to pH7. The resulting degradation solutions were subject to further PL characterizations. Quantum yields were also determined on the same spectrofluorometer by using a Quantum-φ integration sphere (Horiba Scientific, Edison N.J.) at the same concentration and slit size with the blank solvent as the reference. Photostability of small molecules and polymers were determined by monitoring the emission intensity decay at their max. Excitation and emission wavelengths over 3 hours of continuous lumination in the spectrofluorometer.
Absorbance Spectra were recorded on Tecan Infinite M200 Pro UV-vis spectroscopy, and fluorescence spectra were recorded on Horiba FluoroMax-4 fluorospectroscopy at concentrations below 0.1 O.D. unless otherwise indicated. Quantum Yields were measured on the Quantum φ Integrating Sphere accessory to the FluoroMax-4, while lifetime measurements were determined through the Time-Correlation Single Photon Counting (TCSPC) accessory to the FluroMax-4. TCSPC was utilized in conjunction with NanoLED pulsed diode light source with peak excitation wavelength at 352 nm and at 10,000 counts peak preset. Emission was collected at the fluorescence λmax, unless otherwise indicated. For all pH-dependence experiments, sample pH was adjusted with sulfuric acid or sodium hydroxide. For all chloride-dependent quenching experiments, magnesium chloride hexahydrate (Sigma Aldrich) was used.

Structure (SMILES) | Shifting (emission shifting with excitation wavelength)
NCCN1C(=O)C=C(C(=O)O)CC1=O [CA-EDA] | Yes
O=C(O)CN1C(=O)C=C(C(=O)O)CC1=O [CA-Gly] | Yes

same assay, conditions: Table III

Structure (SMILES) | Φ (quantum yield) [%] | λem (maximum emission wavelength) [nm] | λex (maximum excitation wavelength) [nm] | ϵ (extinction coefficiency) [M⁻¹ cm⁻¹]
O=C(O)c1cc(=O)n2c(c1)sc1ccccc12 [CA-2-Aminothiolphenol] | 98.5 | 439 | 396 | 877.8
CC(CC(=O)O)N1C(=O)C=C(C(=O)O)CC1=O (stereo not shown) [CA-3-Aminobutanoic Acid] | 8.8 | 430 | 356 | 6.3
O=C(O)C1=CC(=O)N(c2ccc(S)cc2)C(=O)C1 [CA-4-Aminothiolphenol] | 14.1 | 437 | 396 | 19.6
N=C(N)NCCCC(C(=O)O)N1C(=O)C=C(C(=O)O)CC1=O (stereo not shown) [CA-Arginine] | 15.5 | 451 | 382 | 11.6
NC(=O)CC(C(=O)O)N1C(=O)C=C(C(=O)O)CC1=O (stereo not shown) [CA-Asparagine] | 23.8 | 440 | 378 | 35.5
O=C(O)CC(C(=O)O)N1C(=O)C=C(C(=O)O)CC1=O (stereo not shown) [CA-Aspartic Acid] | 19.7 | 427 | 356 | 6.8
NC(CSSCC(C(=O)O)N1C(=O)C=C(C(=O)O)CC1=O)C(=O)O (stereo not shown) [CA-Cystine] | 15 | 430 | 367 | 11.6
NCCN1C(=O)C=C(C(=O)O)CC1=O [CA-EDA] | 9.2 | 440 | 377 | 828.3
O=C(O)CCC(C(=O)O)N1C(=O)C=C(C(=O)O)CC1=O (stereo not shown) [CA-Glutamic Acid] | 9.1 | 423 | 358 | 5.1
NC(=O)CCC(C(=O)O)N1C(=O)C=C(C(=O)O)CC1=O (stereo not shown) [CA-Glutamine] | 7.3 | 448 | 383 | 102.4
O=C(O)CN1C(=O)C=C(C(=O)O)CC1=O [CA-Gly] | 39.0 | 434 | 357 | 12
CCCCCCCN1C(=O)C=C(C(=O)O)CC1=O [CA-Heptylamine] | 13.5 | 424 | 356 | 4.7
NCCCCCCN1C(=O)C=C(C(=O)O)CC1=O [CA-Hexamethylenediamine] | 11.5 | 426 | 357 | 9.4
O=C(O)c1cc2n(c(=O)c1)C(C(=O)O)CCS2 (stereo not shown) [CA-Homocysteine] | 70.8 | 445 | 375 | 109.2
CCC(C)C(C(=O)O)N1C(=O)C=C(C(=O)O)CC1=O (stereo not shown) [CA-Isoleucine] | 17.2 | 430 | 357 | 5.6
CC(C)CC(C(=O)O)N1C(=O)C=C(C(=O)O)CC1=O (stereo not shown) [CA-Leucine] | 8.8 | 423 | 359 | 6.2
NCCCCC(C(=O)O)N1C(=O)C=C(C(=O)O)CC1=O (stereo not shown) [CA-Lysine] | 8.6 | 431 | 359 | 11.4
CSCCC(C(=O)O)N1C(=O)C=C(C(=O)O)CC1=O (stereo not shown) [CA-Methionine] | 10.5 | 424 | 362 | 5.3
CC1(C)Sc2cc(C(=O)O)cc(=O)n2C1C(=O)O (stereo not shown) [CA-Penicillamine] | 80.6 | 432 | 369 | 3180
O=C(O)C1=CC(=O)N(C(Cc2ccccc2)C(=O)O)C(=O)C1 (stereo not shown) [CA-Phenylalanine] | 12.7 | 423 | 358 | 7.8
Nc1ccc(N2C(=O)C=C(C(=O)O)CC2=O)cc1 [CA-Phenylenediamine] | 4.5 | 433 | 360 | 12.1
O=C(O)C1=CC(=O)N(C(CO)C(=O)O)C(=O)C1 (stereo not shown) [CA-Serine] | 4.2 | 440 | 369 | 437.9
CC1Oc2cc(C(=O)O)cc(=O)n2C1C(=O)O (stereo not shown) [CA-Threonine] | 78.6 | 436 | 386 | 418
O=C(O)C1=CC(=O)N(C(CC2=c3ccccc3=NC2)C(=O)O)C(=O)C1 (stereo not shown) [CA-Tryptophan] | 5 | 445 | 386 | 14.6
CC(C)C(C(=O)O)N1C(=O)C=C(C(=O)O)CC1=O (stereo not shown) [CA-Valine] | 17.5 | 428 | 361 | 5.3
O=C(O)C1=CC(=O)N(CCO)C(=O)C1 [CA-ethanolamine] | 42.1 | 419 | 368 | 34.6
O=C(O)CCCN1C(=O)C=C(C(=O)O)CC1=O [CA-γ-Aminobutyric acid] | 22.1 | 422 | 355 | 4.9
CC(C(=O)O)N1C(=O)CC(C(=O)O)CC1=O (stereo not shown) [TCA-Alanine] | 0.2 | 423 | 355 | 6.1
O=C(O)C1CC(=O)N(C(CS)C(=O)O)C(=O)C1 (stereo not shown) [TCA-Cysteine] | 54.2 | 431 | 366 | 11.6

same assay, conditions: representative CFDs, Table I

Structure (SMILES) | Max. Em. Wavelength [nm] | Max. Ex. Wavelength [nm] | Quantum Yield [%]
NCCN1C(=O)C=C(C(=O)O)CC1=O [CA-EDA] | 440 | 377 | 9.2
O=C(O)CN1C(=O)C=C(C(=O)O)CC1=O [CA-Gly] | 434 | 357 | 39.0
